Patent US20250059171A1 (Hoffmann-La Roche Inc., priority 2021, published 2025)

Tests used:
SARS-CoV-2 3CLpro = SARS-CoV-2 3CLpro (Severe acute respiratory syndrome coronavirus 2, UniProt P0DTD1); test: biochemical
HCoV-229E 3CLpro = HCoV-229E 3CLpro (Human coronavirus 229E, UniProt P0C6X1); test: HCoV-229E 3CLpro inhibition assay (FRET); format: biochemical
SARS-CoV 3CLpro = SARS-CoV 3CLpro (Severe acute respiratory syndrome coronavirus, UniProt P0C6X7); test: biochemical
MERS-CoV 3CLpro = MERS-CoV 3CLpro (Middle East respiratory syndrome-related coronavirus, UniProt K9N7C7); test: biochemical
Chain of MERS-CoV 3CLpro (K9N7C7 3248-3553): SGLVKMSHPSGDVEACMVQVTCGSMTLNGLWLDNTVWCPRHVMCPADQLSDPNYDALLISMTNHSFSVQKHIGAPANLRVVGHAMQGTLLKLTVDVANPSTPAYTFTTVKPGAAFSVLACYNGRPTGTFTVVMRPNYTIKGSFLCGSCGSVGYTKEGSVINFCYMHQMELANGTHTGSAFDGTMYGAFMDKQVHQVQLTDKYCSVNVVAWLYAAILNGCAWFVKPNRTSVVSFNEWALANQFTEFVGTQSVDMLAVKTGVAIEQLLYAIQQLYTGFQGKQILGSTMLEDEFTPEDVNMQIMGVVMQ

Chain of HCoV-229E 3CLpro (P0C6X1 2966-3267): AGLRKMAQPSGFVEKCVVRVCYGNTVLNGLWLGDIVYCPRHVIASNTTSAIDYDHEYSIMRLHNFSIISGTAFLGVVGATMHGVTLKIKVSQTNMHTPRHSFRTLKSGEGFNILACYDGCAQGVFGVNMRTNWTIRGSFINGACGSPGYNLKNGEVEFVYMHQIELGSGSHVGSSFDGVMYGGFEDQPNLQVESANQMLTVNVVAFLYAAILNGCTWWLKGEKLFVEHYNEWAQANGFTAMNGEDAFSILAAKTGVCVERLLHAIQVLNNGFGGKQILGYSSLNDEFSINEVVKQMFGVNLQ

SMILES	IC50 (SARS-CoV-2 3CLpro) [nM]	IC50 (HCoV-229E 3CLpro) [nM]	IC50 (SARS-CoV 3CLpro) [nM]	IC50 (MERS-CoV 3CLpro) [nM]
CC1(C)C[C@@H](C(=O)NN(C[C@@H]2CCNC2=O)C(=O)[C@H](F)Cl)N(C(=O)[C@@H](NC(=O)C(F)(F)F)C(C)(C)C)C1 [Example 8, N-[(1S)-1-[(2S)-2-[[[(2R)-2-chloro-2-fluoro-acetyl]-[[(3S)-2-oxopyrrolidin-3-yl]methyl]amino]carbamoyl]-4,4-dimethyl-pyrrolidine-1-carbonyl]-2,2-dimethyl-propyl]-2,2,2-trifluoro-acetamide]	10	42	25	136
CC(C)(C)[C@H](NC(=O)C(F)(F)F)C(=O)N1C[C@@H]2C[C@@H]2[C@H]1C(=O)NN(C[C@@H]1CCNC1=O)C(=O)[C@H](F)Cl [Example 9, N-[(1S)-1-[(1S,2S,5R)-2-[[[(2R)-2-chloro-2-fluoro-acetyl]-[[(3S)-2-oxopyrrolidin-3-yl]methyl]amino]carbamoyl]-3-azabicyclo[3.1.0]hexane-3-carbonyl]-2,2-dimethyl-propyl]-2,2,2-trifluoro-acetamide]	12	939	38	2780
CC(C)(C)[C@H](NC(=O)C(F)(F)F)C(=O)N1C[C@H]2[C@@H]([C@H]1C(=O)NN(Cc1cc[nH]n1)C(=O)[C@H](F)Cl)C2(C)C [Example 10, N-[(1S)-1-[(1R,2S,5S)-2-[[[(2R)-2-chloro-2-fluoro-acetyl]-(1H-pyrazol-3-ylmethyl)amino]carbamoyl]-6,6-dimethyl-3-azabicyclo[3.1.0]hexane-3-carbonyl]-2,2-dimethyl-propyl]-2,2,2-trifluoro-acetamide]	21	1240	373	3040
CC(C)(C)C(=O)N[C@H](C(=O)N1C[C@H]2[C@@H]([C@H]1C(=O)NN(C[C@@H]1CCNC1=O)C(=O)[C@H](F)Cl)C2(C)C)C(C)(C)C [Example 11, N-[(1S)-1-[(1R,2S,5S)-2-[[[(2R)-2-chloro-2-fluoro-acetyl]-[[(3S)-2-oxopyrrolidin-3-yl]methyl]amino]carbamoyl]-6,6-dimethyl-3-azabicyclo[3.1.0]hexane-3-carbonyl]-2,2-dimethyl-propyl]-2,2-dimethyl-propanamide]	218	56	34	260
CC(C)(C)[C@H](NC(=O)C1CC1)C(=O)N1C[C@H]2[C@@H]([C@H]1C(=O)NN(C[C@@H]1CCNC1=O)C(=O)[C@H](F)Cl)C2(C)C [Example 12, N-[(1S)-1-[(1R,2S,5S)-2-[[[(2R)-2-chloro-2-fluoro-acetyl]-[[(3S)-2-oxopyrrolidin-3-yl]methyl]amino]carbamoyl]-6,6-dimethyl-3-azabicyclo[3.1.0]hexane-3-carbonyl]-2,2-dimethyl-propyl]cyclopropanecarboxamide]	15	26	17	106
CC(C)C(=O)N[C@H](C(=O)N1C[C@H]2[C@@H]([C@H]1C(=O)NN(C[C@@H]1CCNC1=O)C(=O)[C@H](F)Cl)C2(C)C)C(C)(C)C [Example 13, N-[(1S)-1-[(1R,2S,5S)-2-[[[(2R)-2-chloro-2-fluoro-acetyl]-[[(3S)-2-oxopyrrolidin-3-yl]methyl]amino]carbamoyl]-6,6-dimethyl-3-azabicyclo[3.1.0]hexane-3-carbonyl]-2,2-dimethyl-propyl]-2-methyl-propanamide]	9	24	14	94
CC(C)(C)[C@H](NC(=O)C(F)F)C(=O)N1C[C@H]2[C@@H]([C@H]1C(=O)NN(C[C@@H]1CCNC1=O)C(=O)[C@H](F)Cl)C2(C)C [Example 14, N-[(1S)-1-[(1R,2S,5S)-2-[[[(2R)-2-chloro-2-fluoro-acetyl]-[[(3S)-2-oxopyrrolidin-3-yl]methyl]amino]carbamoyl]-6,6-dimethyl-3-azabicyclo[3.1.0]hexane-3-carbonyl]-2,2-dimethyl-propyl]-2,2-difluoro-acetamide]	7	36	18	121
CC(C)(C)[C@H](NC(=O)C12CC(C1)C2)C(=O)N1C[C@H]2[C@@H]([C@H]1C(=O)NN(C[C@@H]1CCNC1=O)C(=O)[C@H](F)Cl)C2(C)C [Example 15, N-[(1S)-1-[(1R,2S,5S)-2-[[[(2R)-2-chloro-2-fluoro-acetyl]-[[(3S)-2-oxopyrrolidin-3-yl]methyl]amino]carbamoyl]-6,6-dimethyl-3-azabicyclo[3.1.0]hexane-3-carbonyl]-2,2-dimethyl-propyl]bicyclo[1.1.1]pentane-1-carboxamide]	8	55	26	204
CC(C)(C)[C@H](NC(=O)c1cc(C(F)(F)F)on1)C(=O)N1C[C@H]2[C@@H]([C@H]1C(=O)NN(C[C@@H]1CCNC1=O)C(=O)[C@H](F)Cl)C2(C)C [Example 16, N-[(1S)-1-[(1R,2S,5S)-2-[[[(2R)-2-chloro-2-fluoro-acetyl]-[[(3S)-2-oxopyrrolidin-3-yl]methyl]amino]carbamoyl]-6,6-dimethyl-3-azabicyclo[3.1.0]hexane-3-carbonyl]-2,2-dimethyl-propyl]-5-(trifluoromethyl)isoxazole-3-carboxamide]	20	159	357	430
CC(C)(C)[C@H](NC(=O)C(F)(F)F)C(=O)N1C[C@H]2[C@@H]([C@H]1C(=O)NN(C[C@@H]1CCNC1=O)C(=O)[C@@H](F)Cl)C2(C)C [Example 19, N-[(1S)-1-[(1R,2S,5S)-2-[[[(2S)-2-chloro-2-fluoro-acetyl]-[[(3S)-2-oxopyrrolidin-3-yl]methyl]amino]carbamoyl]-6,6-dimethyl-3-azabicyclo[3.1.0]hexane-3-carbonyl]-2,2-dimethyl-propyl]-2,2,2-trifluoro-acetamide]	13	27	15	92
CC1(C)[C@@H]2[C@@H](C(=O)NN(C[C@@H]3CCNC3=O)C(=O)[C@H](F)Cl)N(C(=O)[C@H](Cc3ccccc3)NC(=O)C(F)(F)F)C[C@@H]21 [Example 20, N-[(1S)-1-benzyl-2-[(1R,2S,5S)-2-[[[(2R)-2-chloro-2-fluoro-acetyl]-[[(3S)-2-oxopyrrolidin-3-yl]methyl]amino]carbamoyl]-6,6-dimethyl-3-azabicyclo[3.1.0]hexan-3-yl]-2-oxo-ethyl]-2,2,2-trifluoro-acetamide]	14	47	16	106
CC1(C)[C@@H]2[C@@H](C(=O)NN(C[C@@H]3CCNC3=O)C(=O)[C@H](F)Cl)N(C(=O)[C@@H](NC(=O)C(F)(F)F)c3ccccc3)C[C@@H]21 [Example 21, N-[(1S)-2-[(1R,2S,5S)-2-[[[(2R)-2-chloro-2-fluoro-acetyl]-[[(3S)-2-oxopyrrolidin-3-yl]methyl]amino]carbamoyl]-6,6-dimethyl-3-azabicyclo[3.1.0]hexan-3-yl]-2-oxo-1-phenyl-ethyl]-2,2,2-trifluoro-acetamide]	25	34	17	109
CC(C)(C)[C@H](NC(=O)C(F)(F)C(F)(F)F)C(=O)N1C[C@H]2[C@@H]([C@H]1C(=O)NN(C[C@@H]1CCNC1=O)C(=O)[C@H](F)Cl)C2(C)C [Example 22, N-[(1S)-1-[(1R,2S,5S)-2-[[[(2R)-2-chloro-2-fluoro-acetyl]-[[(3S)-2-oxopyrrolidin-3-yl]methyl]amino]carbamoyl]-6,6-dimethyl-3-azabicyclo[3.1.0]hexane-3-carbonyl]-2,2-dimethyl-propyl]-2,2,3,3,3-pentafluoro-propanamide]	8	76	31	183
CC(C)(C)[C@H](NC(=O)C(F)(F)F)C(=O)N1C[C@H](C(F)(F)F)C[C@H]1C(=O)NN(C[C@@H]1CCNC1=O)C(=O)[C@H](F)Cl [Example 23, N-[(1S)-1-[(2S,4R)-2-[[[(2R)-2-chloro-2-fluoro-acetyl]-[[(3S)-2-oxopyrrolidin-3-yl]methyl]amino]carbamoyl]-4-(trifluoromethyl)pyrrolidine-1-carbonyl]-2,2-dimethyl-propyl]-2,2,2-trifluoro-acetamide]	9	21	11	65
CC1([C@H](NC(=O)C(F)(F)F)C(=O)N2CC3(CC3)C[C@H]2C(=O)NN(C[C@@H]2CCNC2=O)C(=O)[C@H](F)Cl)CC1 [Example 24, N-[(1S)-2-[(6S)-6-[[[(2R)-2-chloro-2-fluoro-acetyl]-[[(3S)-2-oxopyrrolidin-3-yl]methyl]amino]carbamoyl]-5-azaspiro[2.4]heptan-5-yl]-1-(1-methylcyclopropyl)-2-oxo-ethyl]-2,2,2-trifluoro-acetamide]	18	31	13	114
CC(C)C(=O)N[C@H](C(=O)N1CC2(CC2)C[C@H]1C(=O)NN(C[C@@H]1CCNC1=O)C(=O)[C@H](F)Cl)C(C)(C)C [Example 25, N-[(1S)-1-[(6S)-6-[[[(2R)-2-chloro-2-fluoro-acetyl]-[[(3S)-2-oxopyrrolidin-3-yl]methyl]amino]carbamoyl]-5-azaspiro[2.4]heptane-5-carbonyl]-2,2-dimethyl-propyl]-2-methyl-propanamide]	15	127	27	408
CC1(C)C[C@@H](C(=O)NN(C[C@@H]2CCNC2=O)C(=O)[C@H](F)Cl)N(C(=O)[C@@H](NC(=O)C2CC2)C(C)(C)C)C1 [Example 26, N-[(1S)-1-[(2S)-2-[[[(2R)-2-chloro-2-fluoro-acetyl]-[[(3S)-2-oxopyrrolidin-3-yl]methyl]amino]carbamoyl]-4,4-dimethyl-pyrrolidine-1-carbonyl]-2,2-dimethyl-propyl]cyclopropanecarboxamide]	12	28	21	98
